Among the data in ChEMBL document CHEMBL2034954, “Synthesis and antimycobacterial activity of novel 1,3-dimethylisocyanurate derivatives” (Eur J Med Chem, 2012) are MIC and Growth_index values, retold here.

Common to all, as to assay type: functional
For experiment [1], the system named is Mycobacterium tuberculosis. As to the kind of experiment: Antitubercular activity against Mycobacterium tuberculosis H37Rv after […] by radiometric growth assay.
In experiment [2] the test system is Mycobacterium tuberculosis. Briefly: Bacteriostatic activity against Mycobacterium tuberculosis H37Rv at 1 ug/mL assessed as growth index after 5 days by radiometric growth assay (reference value: 210 growth index).
For experiment [3], the system named is Mycobacterium tuberculosis. Briefly: Bacteriostatic activity against Mycobacterium tuberculosis H37Rv at 1 ug/mL assessed as growth index after 4 days by radiometric growth assay (reference value: 210 growth index).
Experiment [4] relates to Mycobacterium tuberculosis. As to the kind of experiment: Bacteriostatic activity against Mycobacterium tuberculosis H37Rv at 1 ug/mL assessed as growth index after 3 days by radiometric growth assay (reference value: 210 growth index).
For experiment [5], the system named is Mycobacterium tuberculosis. As to the kind of experiment: Bacteriostatic activity against Mycobacterium tuberculosis H37Rv at 1 ug/mL assessed as growth index after 7 days by radiometric growth assay (reference value: 210 growth index).
The test system of experiment [6] is Mycobacterium tuberculosis. As to the kind of experiment: Bacteriostatic activity against Mycobacterium tuberculosis H37Rv at 1 ug/mL assessed as growth index after 10 days by radiometric growth assay (reference value: 210 growth index).
The test system of experiment [7] is Mycobacterium tuberculosis. As to the kind of experiment: Bacteriostatic activity against Mycobacterium tuberculosis H37Rv at 0.5 ug/mL assessed as growth index after 3 days by radiometric growth assay (reference value: 210 growth index).
For experiment [8], the system named is Mycobacterium tuberculosis. Briefly: Bacteriostatic activity against Mycobacterium tuberculosis H37Rv at 0.5 ug/mL assessed as growth index after 4 days by radiometric growth assay (reference value: 210 growth index).

The structures appear in SMILES notation. ≈ marks a conversion by molar mass, not a printed value.

Turning to `Cn1c(=O)n(C)c(=O)n(CCCCCC[S+]([O-])CC(=O)NN)c1=O` (stereo unspecified), the minimum inhibitory concentration (MIC) (in general, the lowest concentration found to suppress growth) in experiment [1] worked out at 0.5 µg/mL (≈ 1.38 µM). The Growth_index in experiment [2] was 15; in experiment [3], 15; in experiment [4], 10; in experiment [5], over 90.
For the compound `Cn1c(=O)n(C)c(=O)n(CCCCCS(=O)(=O)CC(N)=O)c1=O`, the minimal inhibitory concentration (MIC) in experiment [1] came out at 1 µg/mL (≈ 2.87 µM). The Growth_index in experiment [2] worked out at 23; in experiment [3], 20; in experiment [4] it was 15; in experiment [5], 23; in experiment [6], 23.
Turning to `Cn1c(=O)n(C)c(=O)n(CC[S+]([O-])CC(=O)NN)c1=O` (stereo unspecified), the MIC in experiment [1] came to 0.5 µg/mL (≈ 1.64 µM). In addition, the Growth_index was 30 in experiment [7]; 40 in experiment [2]; 22 in experiment [3]; 10 in experiment [4]; 50 in experiment [5]; over 90 in experiment [8]. Also, the Growth_index in experiment [6] was found to be 50.
In experiment [1], `Cn1c(=O)n(C)c(=O)n(CCCCS(=O)(=O)CC(=O)NN)c1=O` showed a minimum inhibitory concentration (MIC) of 1 µg/mL (≈ 2.86 µM). The Growth_index in experiment [2] is listed as 73; in experiment [3] it was 34; in experiment [4], 18; in experiment [5] it was 73; in experiment [6], over 90.
`Cn1c(=O)n(C)c(=O)n(CCCS(=O)(=O)CC(N)=O)c1=O` showed an MIC in experiment [1] of 1 µg/mL (≈ 3.12 µM). Besides, the Growth_index in experiment [2] is 39; in experiment [3], 29; in experiment [4], 20; in experiment [5], 39; in experiment [6], 39.
In experiment [1], `Cn1c(=O)n(C)c(=O)n(CCC[S+]([O-])CC(N)=O)c1=O` (stereo unspecified) gave a minimal inhibitory concentration (MIC) of 1 µg/mL (≈ 3.29 µM). The Growth_index in experiment [2] is over 90; in experiment [3], 41; in experiment [4], 7.
`Cn1c(=O)n(C)c(=O)n(CCCCCCS(=O)(=O)CC(N)=O)c1=O` registered an MIC in experiment [1] of 1 µg/mL (≈ 2.76 µM). Further, the Growth_index in experiment [2] is given as 53; in experiment [3] it was 23; in experiment [4], 5; in experiment [5], over 90.
Regarding `Cn1c(=O)n(C)c(=O)n(CC(O)CS(=O)(=O)CC(=O)NN)c1=O` (stereo unspecified), in experiment [1], 0.1 µg/mL (≈ 0.285 µM) was the least that counted as inhibitory (MIC). For the same compound, the Growth_index in experiment [2] turned out to be 30; in experiment [3] it was 25; in experiment [4] it was 1; in experiment [5], 35; in experiment [6], 35.
The compound `Cn1c(=O)n(C)c(=O)n(CCCCCCCCCC[S+]([O-])CC(=O)NN)c1=O` (stereo unspecified) returned a minimum inhibitory concentration (MIC) in experiment [1] of 0.5 µg/mL (≈ 1.2 µM). Further, the Growth_index in experiment [2] was 22; in experiment [3] it was 20; in experiment [4] it was 0; in experiment [5], 22; in experiment [6] it was 22.
In turn, `Cn1c(=O)n(C)c(=O)n(CCC[S+]([O-])CC(=O)NN)c1=O` (stereo unspecified) gave an MIC in experiment [1] of 1 µg/mL (≈ 3.13 µM). For the same compound, the Growth_index stood at 5 in experiment [2]; 5 in experiment [3]; 5 in experiment [4]; 5 in experiment [5]; 55 in experiment [6].
Consider `Cn1c(=O)n(C)c(=O)n(CCCCS(=O)(=O)CC(N)=O)c1=O`, for which the lowest concentration to inhibit growth in experiment [1] (MIC) was 1 µg/mL (≈ 2.99 µM). Besides, the Growth_index worked out at 54 in experiment [2]; 35 in experiment [3]; 20 in experiment [4]; 54 in experiment [5]; 54 in experiment [6].
Consider `C=CCn1c(=O)n(CC=C)c(=O)n(CC(O)CS(=O)(=O)CC(=O)NN)c1=O` (stereo unspecified), for which the minimal inhibitory concentration (MIC) in experiment [1] worked out at 0.1 µg/mL (≈ 0.248 µM).
The same measure, in the same setting: the result for `Cn1c(=O)n(C)c(=O)n(CS(=O)(=O)CC(N)=O)c1=O` reads 1 µg/mL (≈ 3.42 µM).
